Assay results taken from patent US11208412B2 (DAEGU-GYEONGBUK MEDICAL INNOVATION FOUNDATION, priority 2017, dated 2021).

Experiments:
Test in all cases: Kinase selectivity, DiscoverX scanMAX Kinase assay panel (% control)
Format in all cases: binding
[1] = molecular target: T1, kinases of the scanMAX Kinase assay panel (Homo sapiens, UniProt Q96PY6); conditions: NEK1; 1 uM
T1 construct: purchased DiscoverX Co. (contract measurement) scanMAX Kinase assay panel
T1 sequence (Q96PY6 1-1258): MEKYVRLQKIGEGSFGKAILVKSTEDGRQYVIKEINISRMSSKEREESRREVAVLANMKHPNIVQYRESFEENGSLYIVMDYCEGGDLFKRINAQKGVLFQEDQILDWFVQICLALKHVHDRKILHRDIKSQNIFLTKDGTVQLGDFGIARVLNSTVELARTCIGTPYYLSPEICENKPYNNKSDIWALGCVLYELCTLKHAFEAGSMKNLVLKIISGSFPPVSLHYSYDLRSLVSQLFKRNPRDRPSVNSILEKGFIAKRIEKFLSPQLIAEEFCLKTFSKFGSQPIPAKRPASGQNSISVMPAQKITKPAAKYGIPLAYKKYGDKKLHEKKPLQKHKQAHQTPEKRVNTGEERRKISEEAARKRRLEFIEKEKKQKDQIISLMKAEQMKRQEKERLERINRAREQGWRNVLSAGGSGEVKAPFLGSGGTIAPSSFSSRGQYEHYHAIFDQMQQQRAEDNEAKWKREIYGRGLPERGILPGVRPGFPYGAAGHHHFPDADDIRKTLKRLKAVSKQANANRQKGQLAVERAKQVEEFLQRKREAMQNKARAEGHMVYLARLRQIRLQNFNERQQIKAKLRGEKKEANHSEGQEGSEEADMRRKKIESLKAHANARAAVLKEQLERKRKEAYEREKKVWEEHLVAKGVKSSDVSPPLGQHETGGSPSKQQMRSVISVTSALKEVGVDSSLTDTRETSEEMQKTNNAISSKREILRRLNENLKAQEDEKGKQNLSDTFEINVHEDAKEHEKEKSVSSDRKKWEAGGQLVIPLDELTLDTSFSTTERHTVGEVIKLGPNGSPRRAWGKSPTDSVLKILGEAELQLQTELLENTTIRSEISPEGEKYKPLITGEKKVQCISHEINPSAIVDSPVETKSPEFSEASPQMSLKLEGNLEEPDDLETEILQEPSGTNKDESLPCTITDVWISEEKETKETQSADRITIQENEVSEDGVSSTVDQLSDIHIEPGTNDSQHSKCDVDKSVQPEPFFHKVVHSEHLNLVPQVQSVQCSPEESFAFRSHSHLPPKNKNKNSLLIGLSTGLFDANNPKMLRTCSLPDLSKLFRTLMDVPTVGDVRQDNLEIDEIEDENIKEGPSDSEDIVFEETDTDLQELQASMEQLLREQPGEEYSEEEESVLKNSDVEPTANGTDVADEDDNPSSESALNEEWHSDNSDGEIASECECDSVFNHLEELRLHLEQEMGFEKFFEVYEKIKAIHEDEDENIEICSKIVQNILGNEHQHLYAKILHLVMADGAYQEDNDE
Method in brief: (§1)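 A 1 uM DMSO solution of compound was applied across the panel kinases, and results were expressed as % control relative to DMSO (100%) and a positive control (0%).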

[2] = molecular target: T2, kinases of the scanMAX Kinase assay panel (Homo sapiens, UniProt Q16584); conditions: MLK3; 1 uM
T2 construct: purchased DiscoverX Co. (contract measurement) scanMAX Kinase assay panel
T2 sequence (Q16584 whole entry): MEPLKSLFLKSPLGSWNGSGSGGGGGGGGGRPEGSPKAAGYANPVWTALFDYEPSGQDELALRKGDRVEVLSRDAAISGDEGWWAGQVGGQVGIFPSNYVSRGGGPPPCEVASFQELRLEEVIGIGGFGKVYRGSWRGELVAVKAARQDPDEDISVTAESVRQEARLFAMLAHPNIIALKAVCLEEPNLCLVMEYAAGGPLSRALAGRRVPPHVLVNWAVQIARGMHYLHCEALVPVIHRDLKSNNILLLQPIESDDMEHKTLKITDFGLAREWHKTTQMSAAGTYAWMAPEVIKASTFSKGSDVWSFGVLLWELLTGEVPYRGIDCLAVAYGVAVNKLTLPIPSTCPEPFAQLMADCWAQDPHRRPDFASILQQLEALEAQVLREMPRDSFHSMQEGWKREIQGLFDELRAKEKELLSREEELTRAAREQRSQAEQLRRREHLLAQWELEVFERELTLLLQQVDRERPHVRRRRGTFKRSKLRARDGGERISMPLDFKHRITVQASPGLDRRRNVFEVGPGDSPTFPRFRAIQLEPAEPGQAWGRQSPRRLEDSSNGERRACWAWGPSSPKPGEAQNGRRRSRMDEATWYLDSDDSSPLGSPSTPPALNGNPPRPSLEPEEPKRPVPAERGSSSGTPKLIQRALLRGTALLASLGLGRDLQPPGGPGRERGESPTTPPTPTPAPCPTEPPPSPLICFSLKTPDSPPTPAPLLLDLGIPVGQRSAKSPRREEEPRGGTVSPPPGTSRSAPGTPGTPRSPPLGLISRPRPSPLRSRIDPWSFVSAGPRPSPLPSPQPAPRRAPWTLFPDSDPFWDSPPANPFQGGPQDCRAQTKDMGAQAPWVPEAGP
Method in brief: as §1

[3] = molecular target: T3, kinases of the scanMAX Kinase assay panel (Homo sapiens, UniProt P52333); conditions: JAK3(JH1domain-catalytic); 1 uM
T3 construct: purchased DiscoverX Co. (contract measurement) scanMAX Kinase assay panel
T3 sequence (P52333 1-1124): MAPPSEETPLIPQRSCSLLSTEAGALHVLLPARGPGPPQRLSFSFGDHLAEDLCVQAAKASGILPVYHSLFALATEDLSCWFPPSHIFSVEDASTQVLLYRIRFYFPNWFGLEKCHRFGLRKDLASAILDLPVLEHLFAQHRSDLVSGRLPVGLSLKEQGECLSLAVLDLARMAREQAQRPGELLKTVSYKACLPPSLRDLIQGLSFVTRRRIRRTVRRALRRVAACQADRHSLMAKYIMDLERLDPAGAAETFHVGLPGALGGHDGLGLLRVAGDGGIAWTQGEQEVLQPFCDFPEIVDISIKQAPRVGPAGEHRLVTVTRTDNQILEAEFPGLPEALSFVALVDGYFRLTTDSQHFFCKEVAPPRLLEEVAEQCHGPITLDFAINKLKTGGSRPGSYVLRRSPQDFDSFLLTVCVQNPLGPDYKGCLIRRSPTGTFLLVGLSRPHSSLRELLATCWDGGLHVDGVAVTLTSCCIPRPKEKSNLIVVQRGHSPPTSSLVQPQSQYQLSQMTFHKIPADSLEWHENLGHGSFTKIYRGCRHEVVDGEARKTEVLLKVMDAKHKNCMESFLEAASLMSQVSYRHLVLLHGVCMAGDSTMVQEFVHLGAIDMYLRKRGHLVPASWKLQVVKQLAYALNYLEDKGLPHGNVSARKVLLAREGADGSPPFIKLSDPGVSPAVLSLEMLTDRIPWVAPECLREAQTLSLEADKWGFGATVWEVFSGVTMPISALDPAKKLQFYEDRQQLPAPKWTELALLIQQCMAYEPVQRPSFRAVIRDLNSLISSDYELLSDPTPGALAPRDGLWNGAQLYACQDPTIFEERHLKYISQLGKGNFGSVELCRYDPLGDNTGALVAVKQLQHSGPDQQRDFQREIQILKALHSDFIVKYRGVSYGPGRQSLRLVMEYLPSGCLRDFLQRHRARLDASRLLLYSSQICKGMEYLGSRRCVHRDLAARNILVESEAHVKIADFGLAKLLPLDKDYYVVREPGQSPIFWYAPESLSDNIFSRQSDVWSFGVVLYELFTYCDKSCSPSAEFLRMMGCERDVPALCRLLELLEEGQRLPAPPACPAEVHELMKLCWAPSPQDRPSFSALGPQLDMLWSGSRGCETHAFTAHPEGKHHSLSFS
Method in brief: as §1

[4] = molecular target: T4, kinases of the scanMAX Kinase assay panel (Homo sapiens, UniProt Q15746); conditions: MYLK; 1 uM
T4 construct: purchased DiscoverX Co. (contract measurement) scanMAX Kinase assay panel
T4 sequence (Q15746 whole entry): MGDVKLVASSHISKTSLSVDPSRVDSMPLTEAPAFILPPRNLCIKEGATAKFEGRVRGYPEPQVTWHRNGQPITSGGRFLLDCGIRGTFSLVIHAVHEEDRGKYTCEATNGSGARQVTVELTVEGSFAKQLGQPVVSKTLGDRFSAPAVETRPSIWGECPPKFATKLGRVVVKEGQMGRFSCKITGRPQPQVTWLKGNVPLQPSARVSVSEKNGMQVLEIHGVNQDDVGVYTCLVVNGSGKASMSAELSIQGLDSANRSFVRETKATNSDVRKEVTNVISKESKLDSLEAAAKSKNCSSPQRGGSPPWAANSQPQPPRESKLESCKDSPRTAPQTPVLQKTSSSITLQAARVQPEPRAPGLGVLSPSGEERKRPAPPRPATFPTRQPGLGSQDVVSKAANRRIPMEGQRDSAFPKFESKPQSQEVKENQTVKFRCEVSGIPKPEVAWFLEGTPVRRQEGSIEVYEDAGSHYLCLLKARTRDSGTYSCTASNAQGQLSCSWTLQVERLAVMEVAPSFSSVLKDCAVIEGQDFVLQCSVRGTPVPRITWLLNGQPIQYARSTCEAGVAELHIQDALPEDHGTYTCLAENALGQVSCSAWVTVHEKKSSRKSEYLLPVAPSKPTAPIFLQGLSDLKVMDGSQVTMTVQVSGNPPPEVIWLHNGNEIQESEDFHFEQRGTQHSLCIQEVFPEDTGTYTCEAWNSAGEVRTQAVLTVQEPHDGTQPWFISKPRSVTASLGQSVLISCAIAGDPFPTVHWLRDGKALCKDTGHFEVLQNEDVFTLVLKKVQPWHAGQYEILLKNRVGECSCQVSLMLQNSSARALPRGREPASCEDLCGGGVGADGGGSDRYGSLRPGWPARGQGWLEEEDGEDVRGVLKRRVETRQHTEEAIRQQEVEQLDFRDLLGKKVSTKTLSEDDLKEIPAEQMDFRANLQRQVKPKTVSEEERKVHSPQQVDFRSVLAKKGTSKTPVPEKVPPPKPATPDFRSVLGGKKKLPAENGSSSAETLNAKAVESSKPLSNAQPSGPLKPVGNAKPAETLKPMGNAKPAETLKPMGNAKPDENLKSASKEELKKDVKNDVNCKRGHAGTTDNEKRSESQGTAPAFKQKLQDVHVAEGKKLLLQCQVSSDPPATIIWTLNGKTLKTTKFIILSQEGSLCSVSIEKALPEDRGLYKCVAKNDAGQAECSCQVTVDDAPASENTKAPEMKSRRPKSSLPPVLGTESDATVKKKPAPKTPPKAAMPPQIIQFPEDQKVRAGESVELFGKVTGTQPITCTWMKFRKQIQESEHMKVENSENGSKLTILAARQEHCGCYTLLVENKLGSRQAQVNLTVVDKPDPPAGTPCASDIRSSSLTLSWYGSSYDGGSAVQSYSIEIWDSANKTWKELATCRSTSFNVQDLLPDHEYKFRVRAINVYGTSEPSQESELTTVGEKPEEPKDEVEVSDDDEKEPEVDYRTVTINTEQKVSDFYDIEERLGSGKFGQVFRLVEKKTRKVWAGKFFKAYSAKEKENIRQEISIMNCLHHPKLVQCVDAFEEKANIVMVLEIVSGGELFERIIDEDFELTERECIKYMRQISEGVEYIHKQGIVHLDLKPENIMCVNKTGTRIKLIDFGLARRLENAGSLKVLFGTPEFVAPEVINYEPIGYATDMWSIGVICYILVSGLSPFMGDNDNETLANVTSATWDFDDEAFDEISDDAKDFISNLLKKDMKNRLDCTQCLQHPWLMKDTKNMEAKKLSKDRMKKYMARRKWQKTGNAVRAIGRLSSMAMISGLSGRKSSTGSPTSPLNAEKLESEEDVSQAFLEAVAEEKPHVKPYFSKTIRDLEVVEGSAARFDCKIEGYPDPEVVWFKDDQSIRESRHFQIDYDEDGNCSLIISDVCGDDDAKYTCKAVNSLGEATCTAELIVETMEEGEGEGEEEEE
Method in brief: as §1

[5] = molecular target: T5, kinases of the scanMAX Kinase assay panel (Homo sapiens, UniProt Q15375); conditions: EPHA7; 1 uM
T5 construct: purchased DiscoverX Co. (contract measurement) scanMAX Kinase assay panel
T5 sequence (Q15375 28-998): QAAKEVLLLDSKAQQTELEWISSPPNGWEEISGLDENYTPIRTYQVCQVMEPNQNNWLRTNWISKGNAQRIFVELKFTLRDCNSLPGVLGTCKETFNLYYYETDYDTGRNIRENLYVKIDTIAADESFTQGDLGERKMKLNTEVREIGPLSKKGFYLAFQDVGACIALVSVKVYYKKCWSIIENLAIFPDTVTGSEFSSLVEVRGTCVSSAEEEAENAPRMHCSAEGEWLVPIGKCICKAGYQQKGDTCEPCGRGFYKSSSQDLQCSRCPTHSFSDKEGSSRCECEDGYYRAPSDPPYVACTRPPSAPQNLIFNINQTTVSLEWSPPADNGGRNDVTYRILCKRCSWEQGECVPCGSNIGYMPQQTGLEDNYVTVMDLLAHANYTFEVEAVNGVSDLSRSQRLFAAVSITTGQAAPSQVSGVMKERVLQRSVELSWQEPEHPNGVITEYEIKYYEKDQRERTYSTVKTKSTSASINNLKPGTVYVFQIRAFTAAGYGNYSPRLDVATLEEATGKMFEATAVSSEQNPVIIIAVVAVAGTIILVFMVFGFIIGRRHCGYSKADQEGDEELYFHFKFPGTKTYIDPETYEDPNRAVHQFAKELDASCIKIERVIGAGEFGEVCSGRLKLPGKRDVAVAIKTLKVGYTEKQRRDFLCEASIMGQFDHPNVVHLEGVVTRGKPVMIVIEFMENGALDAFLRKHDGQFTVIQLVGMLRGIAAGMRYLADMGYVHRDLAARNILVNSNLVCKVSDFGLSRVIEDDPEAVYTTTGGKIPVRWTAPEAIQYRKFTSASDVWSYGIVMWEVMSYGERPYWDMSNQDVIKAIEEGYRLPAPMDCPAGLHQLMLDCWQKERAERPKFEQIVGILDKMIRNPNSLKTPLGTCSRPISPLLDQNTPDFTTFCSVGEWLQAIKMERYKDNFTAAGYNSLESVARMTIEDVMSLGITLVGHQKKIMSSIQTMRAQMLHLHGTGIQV
Method in brief: as §1

[6] = molecular target: T6, kinases of the scanMAX Kinase assay panel (Homo sapiens, UniProt P54646); conditions: AMPK-alpha2; 1 uM
T6 construct: purchased DiscoverX Co. (contract measurement) scanMAX Kinase assay panel
T6 sequence (P54646 whole entry): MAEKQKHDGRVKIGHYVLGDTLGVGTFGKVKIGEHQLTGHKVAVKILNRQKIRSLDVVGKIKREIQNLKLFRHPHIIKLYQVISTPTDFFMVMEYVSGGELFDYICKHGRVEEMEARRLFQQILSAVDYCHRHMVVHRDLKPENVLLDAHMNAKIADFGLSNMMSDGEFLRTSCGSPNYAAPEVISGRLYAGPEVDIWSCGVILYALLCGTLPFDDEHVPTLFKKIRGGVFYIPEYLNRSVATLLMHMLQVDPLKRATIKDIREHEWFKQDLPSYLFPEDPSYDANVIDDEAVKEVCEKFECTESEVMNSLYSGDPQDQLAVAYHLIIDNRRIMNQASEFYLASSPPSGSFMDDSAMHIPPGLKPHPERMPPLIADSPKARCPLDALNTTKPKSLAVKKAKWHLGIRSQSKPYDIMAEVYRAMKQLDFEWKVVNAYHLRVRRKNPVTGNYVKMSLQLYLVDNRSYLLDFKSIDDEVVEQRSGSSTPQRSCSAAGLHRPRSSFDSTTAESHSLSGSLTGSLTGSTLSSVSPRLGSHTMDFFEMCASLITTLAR
Method in brief: as §1

| Structure (SMILES) | remaining binding at 1 µM [1] | remaining binding at 1 µM [2] | remaining binding at 1 µM [3] | remaining binding at 1 µM [4] | remaining binding at 1 µM [5] | remaining binding at 1 µM [6] |
| --- | --- | --- | --- | --- | --- | --- |
| CNc1nc(Nc2ccc(C(=O)N3CCOCC3)cc2OC)nc2[nH]cc(C#N)c12 [Example 1, 2-((2-methoxy-4-(morpholine-4-carbonyl)phenyl)amino)-4-(methylamino)-7H-pyrrolo[2,3-d]pyrimidine-5-carbonitrile] | 94% | 78% | 64% | 0% | 97% | 85% |
| CC1(Nc2nc(Nc3cnn([C@H]4CCN(C5COC5)C[C@@H]4F)c3Cl)nc3[nH]cc(C#N)c23)CC1 [Example 52, 2-((5-chloro-1-((3S,4S)-3-fluoro-1-(oxetane-3-yl)piperidine-4-yl)-1H-pyrazole-4-yl)amino)((1-methylcyclopropyl)amino)-7H-pyrrolo[2,3-d]pyrimidine-5-carbonitrile] | 80% | 3.1% | 0% | 0.55% | 20% | 9.9% |
| CCNc1nc(Nc2ccc(C(=O)N3CCC(N4CCOCC4)CC3)cc2OC)nc2[nH]cc(C(F)(F)F)c12 [Example 104, (4-((4-(ethylamino)-5-(trifluoromethyl)-7H-pyrrolo[2,3-d]pyrimidine-2-yl)amino)-3-methoxyphenyl)(4-morpholinopiperidine-1-yl)methanone] | 93% | 86% | 100% | 0.95% | 94% | 100% |
